Experimental data published in PubChem BioAssay (NCI).
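Five concentrations, 48 hours, 96-well plates. GI50 is the concentration that inhibits growth by half. TGI: concentration producing complete growth inhibition.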

Assays:
Assay in all cases: NCI anticancer screen, dose series, 48 h
[1] = system: MDA-MB-435
[2] = system: SN12C renal
[3] = system: K-562 leukemia
[4] = system: SF-268 CNS
[5] = system: LOX IMVI melanoma
[6] = system: KM12 colon
[7] = system: IGROV1 ovarian
[8] = system: HL-60(TB) leukemia
[9] = system: SNB-75 CNS
[10] = system: M14 melanoma
[11] = system: UACC-62 melanoma
[12] = system: OVCAR-8 ovarian
[13] = system: MDA-MB-231 breast
[14] = system: SK-MEL-28 melanoma
[15] = system: EKVX NSCLC
[16] = system: HOP-92 NSCLC
[17] = system: NCI-H23 lung
[18] = system: SK-MEL-2 melanoma
[19] = system: SK-OV-3 ovarian
[20] = system: NCI-H522 lung
[21] = system: SK-MEL-5 melanoma
[22] = system: RPMI-8226 leukemia
[23] = system: UO-31 renal
[24] = system: ACHN renal
[25] = system: A498 renal
[26] = system: T-47D breast
[27] = system: PC-3 prostate
[28] = system: HS 578T breast
[29] = system: NCI/ADR-RES ovarian
[30] = system: SNB-19 CNS
[31] = system: RXF 393 renal
[32] = system: SR leukemia
[33] = system: OVCAR-3 ovarian
[34] = system: U251 CNS
[35] = system: HCT-15 colon
[36] = system: HCC-2998 colon
[37] = system: TK-10 renal
[38] = system: OVCAR-5 ovarian
[39] = system: SW-620 colon
[40] = system: A549 NSCLC
[41] = system: HCT-116 colon
[42] = system: CCRF-CEM leukemia
[43] = system: BT-549 breast
[44] = system: OVCAR-4 ovarian
[45] = system: CAKI-1 renal
[46] = system: DU-145 prostate
[47] = system: MALME-3M melanoma
[48] = system: HT29 colon
[49] = system: UACC-257 melanoma
[50] = system: COLO 205 colon
[51] = system: NCI-H460 lung
[52] = system: NCI-H226 lung
[53] = system: HOP-62 NSCLC
[54] = system: MOLT-4 leukemia
[55] = system: 786-0 renal
[56] = system: SF-295 CNS
[57] = system: MCF7 breast
[58] = system: SF-539 CNS

Question: Which GI50 [1] does the source give for `COc1cc(/C=C/C(=O)c2cc(OC)c(OC)c(OC)c2)ccc1Oc1nc(NCCO)nc(N2CCOCC2)n1` here?
Answer: The GI50 was 3.1 µM.

Question: And the TGI [1]?
Answer: Its TGI is 11 µM.

Question: What about the GI50 [2] of the same compound?
Answer: Its GI50 is 1790 nM.

Question: And the TGI [2]?
Answer: Its TGI is 5.72 µM.

Question: And the GI50 [3]?
Answer: Its GI50 is 1910 nM.

Question: What about the TGI [3] of the same compound?
Answer: Its TGI is > 100 µM.

Question: And the GI50 [4]?
Answer: The GI50 was 3.02 µM.

Question: What about the TGI [4] of the same compound?
Answer: Its TGI is 12.9 µM.

Question: What about the GI50 [5] of the same compound?
Answer: The GI50 was 642 nM.

Question: What about the TGI [5] of the same compound?
Answer: The TGI was 2040 nM.

Question: And the GI50 [6]?
Answer: The GI50 was 2990 nM.

Question: And the TGI [6]?
Answer: The TGI was 9.63 µM.

Question: What about the GI50 [7] of the same compound?
Answer: The GI50 was 2450 nM.

Question: And the TGI [7]?
Answer: Its TGI is 6.17 µM.

Question: And the GI50 [8]?
Answer: Its GI50 is 1540 nM.

Question: What about the TGI [8] of the same compound?
Answer: Its TGI is 6.8 µM.

Question: And the GI50 [9]?
Answer: Its GI50 is 1790 nM.

Question: What about the TGI [9] of the same compound?
Answer: Its TGI is 6.2 µM.

Question: What about the GI50 [10] of the same compound?
Answer: Its GI50 is 2380 nM.

Question: What about the TGI [10] of the same compound?
Answer: The TGI was 7.32 µM.

Question: And the GI50 [11]?
Answer: Its GI50 is 1690 nM.

Question: And the TGI [11]?
Answer: The TGI was 3.19 µM.

Question: What about the GI50 [12] of the same compound?
Answer: The GI50 was 2560 nM.

Question: What about the TGI [12] of the same compound?
Answer: The TGI was 10.1 µM.

Question: And the GI50 [13]?
Answer: Its GI50 is 2860 nM.

Question: And the TGI [13]?
Answer: The TGI was 11.3 µM.

Question: And the GI50 [14]?
Answer: The GI50 was 1920 nM.

Question: What about the TGI [14] of the same compound?
Answer: The TGI was 3.81 µM.

Question: What about the GI50 [15] of the same compound?
Answer: Its GI50 is 2810 nM.

Question: And the TGI [15]?
Answer: The TGI was 9.99 µM.

Question: What about the GI50 [16] of the same compound?
Answer: The GI50 was 2750 nM.

Question: What about the TGI [16] of the same compound?
Answer: The TGI was 9.99 µM.

Question: What about the GI50 [17] of the same compound?
Answer: The GI50 was 1990 nM.

Question: And the TGI [17]?
Answer: Its TGI is 4.8 µM.

Question: And the GI50 [18]?
Answer: The GI50 was 2760 nM.

Question: And the TGI [18]?
Answer: The TGI was 8.19 µM.

Question: And the GI50 [19]?
Answer: Its GI50 is 2440 nM.

Question: And the TGI [19]?
Answer: Its TGI is 6.34 µM.

Question: And the GI50 [20]?
Answer: The GI50 was 1560 nM.

Question: And the TGI [20]?
Answer: Its TGI is 3.17 µM.

Question: What about the GI50 [21] of the same compound?
Answer: The GI50 was 1770 nM.

Question: What about the TGI [21] of the same compound?
Answer: The TGI was 3.31 µM.

Question: What about the GI50 [22] of the same compound?
Answer: The GI50 was 1630 nM.

Question: And the TGI [22]?
Answer: The TGI was 5.85 µM.

Question: And the GI50 [23]?
Answer: Its GI50 is 1660 nM.

Question: And the TGI [23]?
Answer: Its TGI is 3.28 µM.

Question: And the GI50 [24]?
Answer: Its GI50 is 1640 nM.

Question: And the TGI [24]?
Answer: Its TGI is 3.6 µM.

Question: And the GI50 [25]?
Answer: The GI50 was 3.58 µM.

Question: What about the TGI [25] of the same compound?
Answer: Its TGI is 13.3 µM.

Question: What about the GI50 [26] of the same compound?
Answer: Its GI50 is 3.12 µM.

Question: And the TGI [26]?
Answer: Its TGI is 11.8 µM.

Question: And the GI50 [27]?
Answer: Its GI50 is 3.11 µM.

Question: What about the TGI [27] of the same compound?
Answer: The TGI was 13.5 µM.

Question: And the GI50 [28]?
Answer: The GI50 was 3.62 µM.

Question: What about the TGI [28] of the same compound?
Answer: The TGI was 22.4 µM.

Question: And the GI50 [29]?
Answer: Its GI50 is 4.72 µM.

Question: And the TGI [29]?
Answer: Its TGI is 23.4 µM.

Question: What about the GI50 [30] of the same compound?
Answer: The GI50 was 2310 nM.

Question: What about the TGI [30] of the same compound?
Answer: The TGI was 7.07 µM.

Question: And the GI50 [31]?
Answer: Its GI50 is 1750 nM.

Question: What about the TGI [31] of the same compound?
Answer: The TGI was 3.48 µM.

Question: What about the GI50 [32] of the same compound?
Answer: Its GI50 is 784 nM.

Question: And the TGI [32]?
Answer: Its TGI is 4.8 µM.

Question: And the GI50 [33]?
Answer: The GI50 was 3.2 µM.

Question: What about the TGI [33] of the same compound?
Answer: Its TGI is 10.6 µM.

Question: And the GI50 [34]?
Answer: The GI50 was 1620 nM.

Question: And the TGI [34]?
Answer: The TGI was 3.12 µM.

Question: What about the GI50 [35] of the same compound?
Answer: Its GI50 is 1600 nM.

Question: What about the TGI [35] of the same compound?
Answer: The TGI was 4.01 µM.

Question: What about the GI50 [36] of the same compound?
Answer: The GI50 was 2230 nM.

Question: What about the TGI [36] of the same compound?
Answer: Its TGI is 4.22 µM.

Question: What about the GI50 [37] of the same compound?
Answer: Its GI50 is 3.12 µM.

Question: And the TGI [37]?
Answer: Its TGI is 8.93 µM.

Question: And the GI50 [38]?
Answer: Its GI50 is 3.14 µM.

Question: And the TGI [38]?
Answer: The TGI was 10.6 µM.

Question: What about the GI50 [39] of the same compound?
Answer: Its GI50 is 2240 nM.

Question: What about the TGI [39] of the same compound?
Answer: Its TGI is 5.78 µM.

Question: And the GI50 [40]?
Answer: The GI50 was 2780 nM.

Question: What about the TGI [40] of the same compound?
Answer: Its TGI is 9.4 µM.

Question: And the GI50 [41]?
Answer: The GI50 was 1530 nM.

Question: And the TGI [41]?
Answer: The TGI was 3.23 µM.

Question: And the GI50 [42]?
Answer: The GI50 was 2380 nM.

Question: And the TGI [42]?
Answer: The TGI was 23.5 µM.

Question: And the GI50 [43]?
Answer: Its GI50 is 1600 nM.

Question: And the TGI [43]?
Answer: Its TGI is 3.32 µM.

Question: And the GI50 [44]?
Answer: Its GI50 is 2920 nM.

Question: What about the TGI [44] of the same compound?
Answer: Its TGI is 10.5 µM.

Question: And the GI50 [45]?
Answer: The GI50 was 2430 nM.

Question: What about the TGI [45] of the same compound?
Answer: Its TGI is 9.16 µM.

Question: And the GI50 [46]?
Answer: The GI50 was 2990 nM.

Question: And the TGI [46]?
Answer: The TGI was 12.4 µM.

Question: What about the GI50 [47] of the same compound?
Answer: Its GI50 is 2670 nM.

Question: And the TGI [47]?
Answer: The TGI was 6.74 µM.

Question: What about the GI50 [48] of the same compound?
Answer: The GI50 was 2830 nM.

Question: And the TGI [48]?
Answer: Its TGI is 8.44 µM.

Question: And the GI50 [49]?
Answer: Its GI50 is 2830 nM.

Question: And the TGI [49]?
Answer: Its TGI is 12.7 µM.

Question: And the GI50 [50]?
Answer: The GI50 was 2100 nM.

Question: What about the TGI [50] of the same compound?
Answer: Its TGI is 4.39 µM.

Question: And the GI50 [51]?
Answer: The GI50 was 1870 nM.

Question: What about the TGI [51] of the same compound?
Answer: The TGI was 4.03 µM.

Question: And the GI50 [52]?
Answer: Its GI50 is 3.69 µM.

Question: What about the TGI [52] of the same compound?
Answer: The TGI was 19.7 µM.

Question: What about the GI50 [53] of the same compound?
Answer: The GI50 was 2350 nM.

Question: And the TGI [53]?
Answer: Its TGI is 6.04 µM.

Question: And the GI50 [54]?
Answer: Its GI50 is 1980 nM.

Question: And the TGI [54]?
Answer: Its TGI is 8.02 µM.

Question: And the GI50 [55]?
Answer: The GI50 was 3.46 µM.

Question: And the TGI [55]?
Answer: The TGI was 13 µM.

Question: What about the GI50 [56] of the same compound?
Answer: Its GI50 is 2900 nM.

Question: And the TGI [56]?
Answer: The TGI was 10.6 µM.

Question: And the GI50 [57]?
Answer: The GI50 was 1720 nM.

Question: What about the TGI [57] of the same compound?
Answer: The TGI was 10.8 µM.

Question: What about the GI50 [58] of the same compound?
Answer: The GI50 was 1880 nM.

Question: What about the TGI [58] of the same compound?
Answer: The TGI was 4.58 µM.
